In patent US11702394B2, “Inhibitors of phospholipid synthesis and methods of use” (The Board of Trustees of the Leland Stanford Junior …, priority 2018, dated 2023):
“Also recorded” adds a separate entry of the source.

How the values were obtained:
human lymphoma lines = assay: Proliferation of human lymphoma lines (FIG. 5); type: cell-based; conditions: 1-100 μM, 24 hours, various human lymphoma lines
Method: (§1) Cell Counting. A volume of cells was removed from culture medium and mixed with an equal volume of 0.4% Trypan blue stain. Then, 10 μL were taken out and placed into a hemocytometer for cell counting. Viable cell counts were used as a measure of cell proliferation.
(§2) All RCC cell lines were maintained in Dulbecco's Modified Eagle Medium (DMEM) supplemented with 10% fetal bovine serum (FBS), 1% L-glutamine, 1% sodium pyruvate, 1% nonessential amino acids, and Antibiotic-Antimycotic. All lymphoma lines were maintained in RPMI 1640 medium supplemented with 10% FBS, 50 μM β-mercaptoethanol, and […]

mouse-derived T-ALL line = assay: Response in mouse-derived T-ALL line at high, low or no MYC (FIG. 6); type: cell-based; conditions: 1-100 μM; MYC levels controlled by doxycycline-off system
Method: as §1, §2

[1] = test system: mouse-derived MYC-induced RCC E28 line; assay: RCC E28 proliferation / cell viability (FIG. 7, 10B, 12B); type: cell-based
Method: as §1, §2

[2] = test system: mouse derived MYC-induced HCC EC4 line; assay: HCC EC4 proliferation / cell viability (FIG. 8, 9, 12A); type: cell-based; conditions: for cell viability as compared to FSG67: HCC EC4, 1-100 μM dose, two days (48 hours) post treatment
Method: as §1

fatty acids and PGs = assay: Lipid profile after TOFA or FSG67 (FIG. 11); design: species or system mouse
Method: DESI-MSI was used for generating two-dimensional chemical maps of 16 μm-thick tissue sections in order to assess the lipid profiles of tissue. The tissue samples were snap-frozen in liquid nitrogen and stored at −80° C. before processing. The frozen samples were cut into 16 μm sections at −21° C. using a cryomicrotome and thaw-mounted onto microscope slides. The slides were stored at −80° C. Prior to analysis, the slides were dried under a vacuum in a desiccator for approximately 20 minutes. A laboratory-built DESI-MSI source coupled to an LTQ-Orbitrap-XL mass spectrometer (Thermo Fisher Scientific) was utilized, and DESI-MSI was performed in the negative ion mode at m/z 90-1,000 with a spatial resolution of 200 μm (FIG. S1). The Orbitrap was used as the mass analyzer while set to 60,000 resolving power. Mouse tissue samples were imaged by this method using dimethylformamide and acetonitrile (1:1) as a solvent system at a flow rate of 0.5 μL/min. The N2 pressure was set to 175 psi. In DESI-MSI, charged solvents are sprayed onto the tissue, resulting in molecules, such as metabolites and lipids, to be dissolved and extracted from the tissue surface, then transferred into a mass spectrometer for measurement of the mass-to-charge (m/z) ratios. The software ImgGenerator (freeware, www.msimaging.net/) was used for converting raw files into 2D images. Spatially accurate ion images were assembled using BioMap software (freeware, www.maldi-msi.org/). After DESI-MSI, the same tissue section was subjected to a standard H&E staining for histopathologic evaluation using light microscopy. DESI-MS ion images were compared with optical microscopy images of the same-tissue H&E-stained tissue sections for delineation of tumor foci. Tandem MS analyses were performed using both the Orbitrap and the linear ion trap for mass analysis to confirm lipid identity. The LipidMaps database (www.lipidmaps.org/) was also used to assist in lipid identification.

MYC-induced tumors = MYC-induced tumors in xenograft and primary mouse models; type: in vivo
Excerpt: A Tet system was used to conditionally activate MYC, in the liver, kidney, lymphocyte, and lung tissue of transgenic mice. In this system, […] In the absence of tetracycline, transcription of the oncogene is activated. Oncogene expression was activated in mice by removal of doxycycline (a stable analog of tetracycline) in the mice's drinking water. All animal studies were approved by the Stanford University Administrative Panel on Laboratory Animal Care (APLAC).

[3] = biological target: glycerol 3-phosphate acyltransferase (GPAT); conditions: inhibitor of GPAT; cited from earlier work
diet-induced obese mice = conditions: cited from earlier work
[4] = test system: human MYC-induced Burkitt's Lymphoma line P493; assay: BCL P493 cell viability (FIG. 10A, 12C); type: cell-based; conditions: BCL P493, 1-100 μM dose, five days post treatment
Method: as §1, §2

CCCCCCCCCS(=O)(=O)Nc1ccccc1C(=O)O [FSG67, 2-(Nonylsulfonamido) benzoic acid]
cell proliferation (human lymphoma lines): suppresses cell proliferation
therapeutic response, high MYC vs. low or no MYC (mouse-derived T-ALL line): induces therapeutic response in high MYC (no dox) vs. low or no MYC; also recorded: induced a therapeutic response in high MYC (no dox)
RCC E28 proliferation ([1]; 1-100 μM): suppresses RCC E28 proliferation
HCC EC4 proliferation ([2]; 1-100 μM): suppresses HCC EC4 proliferation
depletion of lipids (fatty acids, PGs) (fatty acids and PGs): depletes only PGs
levels of fatty acids upstream of GPAT (oleate) (fatty acids and PGs): not perturbing levels of fatty acids that are upstream of GPAT
MYC-induced tumorigenesis (MYC-induced tumors): MYC-induced tumorigenesis was blocked
metabolic changes (MYC-induced tumors): metabolic changes were suppressed
tumor regression (MYC-induced tumors): tumors regressed
IC50 [3]: 24 µM
body weight and adiposity (diet-induced obese mice): decrease body weight and adiposity
energy utilization as fatty acid oxidation (diet-induced obese mice): enhance energy utilization as fatty acid oxidation
food intake (diet-induced obese mice): reduce food intake
hepatic steatosis (diet-induced obese mice): reverse hepatic steatosis
insulin sensitivity (diet-induced obese mice): enhance insulin sensitivity

[2H]c1c([2H])c([2H])c(C(=O)O)c(NS(=O)(=O)CCCCCCCCC)c1[2H] [GFZ1.1]
cell viability as compared to FSG67 [2]: significant difference in cell viability

[2H]C([2H])([2H])C([2H])([2H])C([2H])([2H])C([2H])([2H])C([2H])([2H])C([2H])([2H])C([2H])([2H])C([2H])([2H])C([2H])([2H])S(=O)(=O)Nc1ccccc1C(=O)OC [GFZ1.2]
cell viability as compared to FSG67 [2]: significant difference in cell viability

CCCCCCCCCS(=O)(=O)Nc1ccccc1C(=O)OC [GFZ1.5]
cell viability as compared to FSG67 ([1]; RCC E28, 1-100 μM dose, two days (48 hours) post treatment): significant difference in cell viability
cell viability as compared to FSG67 [2]: significant difference in cell viability
cell viability as compared to FSG67 [4]: significant difference in cell viability

CCCCCCCCCCCCCCOc1ccc(C(=O)O)o1 [TOFA]
depletion of lipids (fatty acids, PGs) (fatty acids and PGs): depletes all fatty acids
